For this series the following is noted: rats, lung instillation, 10 μg salmon calcitonin + 1 mg FCIGRL vs 10 μg salmon calcitonin alone. How it is done:
An aqueous saline solution containing 10 μg of salmon calcitonin was instilled into the lungs of rats and serum calcitonin levels were measured by ELISA. An aqueous saline solution containing 10 μg of salmon calcitonin and 1 mg of the tight junction agonist peptide FCIGRL was instilled into the lungs of rats and serum calcitonin levels were measured by ELISA.

Where no end group is shown, it is not given here.

Consider one substance from patent publication US20080014218A1, “USE OF TIGHT JUNCTION AGONISTS TO […] DELIVERY OF THERAPEUTIC AGENTS” (ALBA THERAPEUTICS CORP., priority 2006, published 2008).

For the substance FCIGRL [FCIGRL], the “increase in area under the curve (AUC) of serum calcitonin” value was “approximately 10.6 fold” and the “increase in observed peak serum calcitonin levels” value is reported as “approximately three-fold”.
